Experimental data reported in patent publication US11945822B2, “Pyrazolo-triazine and/or pyrazolo-pxrimidine derivatives as selective inhibitor of cyclin dependent kinase” (QURIENT CO., LTD., priority 2018, dated 2024).
pIC50: −log10 of the molar value.

The compounds below were run against T1, CDK5/p25 (Homo sapiens, UniProt Q00535) (assay: Enzymatic assay for CDK5 (FRET based LANCE Ultra kinase assay)). Details: read-out: CDK5 enzymatic activity (IC50 range).
T1 construct: purchased Invitrogen PR8543B
Format: biochemical
Outline: (§1)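 Each CDK complex ([…]) phosphorylated 68 nM ULight-MBP peptide with ATP at Km for 60 min at 23° C., against 8 compound doses (4-fold dilutions). EDTA/Eu-anti-phospho-MBP detection, 60 min, then TR-FRET emission at 615 and 665 nm.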

T1 sequence (Q00535 whole entry): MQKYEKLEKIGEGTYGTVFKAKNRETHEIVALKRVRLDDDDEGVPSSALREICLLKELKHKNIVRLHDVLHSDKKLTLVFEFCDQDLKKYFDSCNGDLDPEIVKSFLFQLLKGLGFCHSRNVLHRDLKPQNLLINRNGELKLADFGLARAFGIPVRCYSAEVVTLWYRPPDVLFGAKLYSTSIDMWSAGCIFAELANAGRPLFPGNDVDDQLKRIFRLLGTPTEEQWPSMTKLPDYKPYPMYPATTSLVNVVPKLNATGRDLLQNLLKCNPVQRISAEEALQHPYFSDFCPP
T1 sequence (Q15078 99-307 partner limits assumed): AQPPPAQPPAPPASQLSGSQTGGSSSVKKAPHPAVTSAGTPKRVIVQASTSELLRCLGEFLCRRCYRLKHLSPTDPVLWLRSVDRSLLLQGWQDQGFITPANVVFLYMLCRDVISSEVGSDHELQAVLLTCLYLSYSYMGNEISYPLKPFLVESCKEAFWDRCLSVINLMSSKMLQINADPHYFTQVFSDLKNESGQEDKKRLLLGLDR

Row | pIC50 | Structure (SMILES)
1 | < 6.00 | CC(C)c1cnn2c(NCc3ccccc3-c3cc4ccccc4[nH]3)nc(N3CCC[C@@H](N)C3)nc12 [Compound 131]
2 | 6.00 to 7.00 | CC(C)c1cnn2c(NCc3ccccc3-n3cc4c(n3)CCC(=O)C4)nc(N3CCC(N)CC3)nc12 [Compound 132]
3 | < 6.00 | CC(C)c1cnn2c(NCc3ccccc3N3CC4CCCCC4C3)nc(N3CCC(N)CC3)nc12 (centres unmarked) [Compound 135]
4 | > 7.00 | CC(C)c1cnn2c(NCc3ccccc3-c3ccc4[nH]ncc4c3)nc(N3CCC(N)CC3)nc12 [Compound 137]

What follows are compounds tested on RPMI-8226 (assay: Cellular RPMI-8226 viability assay (CellTiter-Glo, 72 hours)). Details: Homo sapiens.
Format: cell-based
Description: All cell lines were routinely tested for mycoplasma.
The effect of the CDK7 inhibitor to inhibit the growth of target cancer cells was evaluated through the 72 hours time period of viability assay. Briefly, the candidate cell line ware plated in 96 well plate at the following density of cells respectively. […] DMSO solvent without compound served as a control and final DMSO concentration less than 0.1%. After 72 hours of incubation at 37° C., 5% CO2 incubator, cells were analyzed for the viability using the CellTiter-Glo Luminescent Cell Viability Assay (Promega, Cat #G7570). All viability assays were performed in duplicate and Luminescence was read using an Envision (Perkin Elmer, USA). Data was analyzed using XLfit software.

Row | pIC50 | Structure (SMILES)
5 | 5.00 to 6.00 | CC(C)c1cnn2c(NCc3ccccc3-c3cc4ccccc4[nH]3)nc(N3CCC[C@@H](N)C3)nc12 [Compound 131]
6 | 5.00 to 6.00 | CC(C)c1cnn2c(NCc3ccccc3-n3cc4c(n3)CCC(=O)C4)nc(N3CCC(N)CC3)nc12 [Compound 132]
7 | 5.00 to 6.00 | CC(C)c1cnn2c(NCc3ccccc3N3CC4CCCCC4C3)nc(N3CCC(N)CC3)nc12 (centres unmarked) [Compound 135]
8 | > 6.00 | CC(C)c1cnn2c(NCc3ccccc3-c3ccc4[nH]ncc4c3)nc(N3CCC(N)CC3)nc12 [Compound 137]

These compounds were tested on H460 (assay: Cellular H460 viability assay (CellTiter-Glo, 72 hours)). Details: Homo sapiens, NCI-H460.
Format: cell-based
Outline: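 Steps: seed cells at per-line density; add compound, DMSO vehicle kept under 0.1% final; incubate 72 h, 37 °C, 5% CO2; lyse with CellTiter-Glo and read luminescence; run in duplicate.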

Row | pIC50 | Structure (SMILES)
9 | 5.00 to 6.00 | CC(C)c1cnn2c(NCc3ccccc3-n3cc4c(n3)CCC(=O)C4)nc(N3CCC(N)CC3)nc12 [Compound 132]
10 | 5.00 to 6.00 | CC(C)c1cnn2c(NCc3ccccc3N3CC4CCCCC4C3)nc(N3CCC(N)CC3)nc12 (centres unmarked) [Compound 135]
11 | > 6.00 | CC(C)c1cnn2c(NCc3ccccc3-c3ccc4[nH]ncc4c3)nc(N3CCC(N)CC3)nc12 [Compound 137]

What follows are compounds tested against T2, CDK1/Cyclin B (Homo sapiens, UniProt P06493) (assay: Enzymatic assay for CDK1 (FRET based LANCE Ultra kinase assay)). Details: read-out: CDK1 enzymatic activity (IC50 range).
T2 construct: purchased Invitrogen PR4768C
Format: biochemical
Outline: as §1

T2 sequence (P06493 whole entry): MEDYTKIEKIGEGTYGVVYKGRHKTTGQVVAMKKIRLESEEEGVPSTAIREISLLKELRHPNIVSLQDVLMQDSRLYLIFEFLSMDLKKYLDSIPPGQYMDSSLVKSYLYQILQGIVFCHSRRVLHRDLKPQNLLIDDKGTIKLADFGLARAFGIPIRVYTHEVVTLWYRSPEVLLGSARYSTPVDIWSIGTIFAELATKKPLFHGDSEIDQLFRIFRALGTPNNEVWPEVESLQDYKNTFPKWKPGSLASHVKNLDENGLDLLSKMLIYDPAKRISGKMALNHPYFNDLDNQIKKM
T2 sequence (P14635 whole entry partner): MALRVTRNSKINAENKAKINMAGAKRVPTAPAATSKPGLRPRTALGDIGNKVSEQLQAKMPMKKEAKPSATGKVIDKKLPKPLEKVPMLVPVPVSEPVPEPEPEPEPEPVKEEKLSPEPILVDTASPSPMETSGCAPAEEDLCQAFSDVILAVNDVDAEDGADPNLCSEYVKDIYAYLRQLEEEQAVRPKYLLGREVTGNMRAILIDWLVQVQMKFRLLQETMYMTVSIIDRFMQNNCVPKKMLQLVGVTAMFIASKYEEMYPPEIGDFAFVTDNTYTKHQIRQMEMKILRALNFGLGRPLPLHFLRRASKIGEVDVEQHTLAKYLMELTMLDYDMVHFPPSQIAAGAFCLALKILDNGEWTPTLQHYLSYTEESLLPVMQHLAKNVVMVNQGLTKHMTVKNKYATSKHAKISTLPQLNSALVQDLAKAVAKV

Row | pIC50 | Structure (SMILES)
12 | < 6.00 | CC(C)c1cnn2c(NCc3ccccc3-c3cc4ccccc4[nH]3)nc(N3CCC[C@@H](N)C3)nc12 [Compound 131]
13 | < 6.00 | CC(C)c1cnn2c(NCc3ccccc3-n3cc4c(n3)CCC(=O)C4)nc(N3CCC(N)CC3)nc12 [Compound 132]
14 | < 6.00 | CC(C)c1cnn2c(NCc3ccccc3N3CC4CCCCC4C3)nc(N3CCC(N)CC3)nc12 (centres unmarked) [Compound 135]
15 | 6.00 to 7.00 | CC(C)c1cnn2c(NCc3ccccc3-c3ccc4[nH]ncc4c3)nc(N3CCC(N)CC3)nc12 [Compound 137]

The compounds below were run against T3, CDK7/Cyclin H/MNAT1 (Homo sapiens, UniProt P50613) (assay: Enzymatic assay for CDK7 (FRET based LANCE Ultra kinase assay)). Details: CDK7 over CDK1.
T3 construct: purchased Invitrogen PR6749B
Format: biochemical
Outline: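 LANCE Ultra TR-FRET kinase assay using a ULight-labeled peptide substrate and a Eu-labeled anti-phospho antibody, with ATP at its Km. Purified CDK/cyclin complex was added to compound after brief centrifugation.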

T3 sequence (P50613 whole entry): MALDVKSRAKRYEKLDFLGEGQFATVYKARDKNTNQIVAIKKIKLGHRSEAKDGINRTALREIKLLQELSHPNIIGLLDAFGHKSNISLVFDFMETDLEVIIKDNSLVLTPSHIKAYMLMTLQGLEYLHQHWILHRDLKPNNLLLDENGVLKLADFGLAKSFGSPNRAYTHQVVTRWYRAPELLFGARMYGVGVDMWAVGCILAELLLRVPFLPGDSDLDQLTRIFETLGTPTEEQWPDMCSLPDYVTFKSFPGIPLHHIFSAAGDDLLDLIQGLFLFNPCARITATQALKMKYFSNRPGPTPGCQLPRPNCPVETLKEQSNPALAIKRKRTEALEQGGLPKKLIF
T3 sequence (P51946 whole entry partner): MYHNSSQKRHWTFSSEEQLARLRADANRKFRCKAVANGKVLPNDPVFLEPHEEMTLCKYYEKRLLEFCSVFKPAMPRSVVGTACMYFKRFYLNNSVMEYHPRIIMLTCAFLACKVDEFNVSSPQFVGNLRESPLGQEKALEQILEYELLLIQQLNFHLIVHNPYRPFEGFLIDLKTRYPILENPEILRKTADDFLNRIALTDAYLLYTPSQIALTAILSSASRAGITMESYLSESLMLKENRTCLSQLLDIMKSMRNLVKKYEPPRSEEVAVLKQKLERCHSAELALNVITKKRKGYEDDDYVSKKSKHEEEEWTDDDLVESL
T3 sequence (P51948 whole entry partner): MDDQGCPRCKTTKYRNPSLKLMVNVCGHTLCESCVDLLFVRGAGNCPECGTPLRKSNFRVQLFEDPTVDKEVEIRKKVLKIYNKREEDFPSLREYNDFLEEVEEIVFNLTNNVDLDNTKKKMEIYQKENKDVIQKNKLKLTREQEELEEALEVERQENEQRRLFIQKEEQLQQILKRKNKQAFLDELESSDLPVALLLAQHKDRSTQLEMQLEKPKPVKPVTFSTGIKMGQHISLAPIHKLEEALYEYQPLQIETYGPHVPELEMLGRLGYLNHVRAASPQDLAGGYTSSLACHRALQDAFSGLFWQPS

Row | CDK1/CDK7: Selectivity of CDK7 inhibition over CDK1 inhibition | Structure (SMILES)
16 | A (A=greater than 200 fold) | CC(C)c1cnn2c(NCc3ccccc3-n3cc4c(n3)CCC(=O)C4)nc(N3CCC(N)CC3)nc12 [Compound 132]
17 | A (A=greater than 200 fold) | CC(C)c1cnn2c(NCc3ccccc3N3CC4CCCCC4C3)nc(N3CCC(N)CC3)nc12 (centres unmarked) [Compound 135]
18 | C (C=less than 20 fold) | CC(C)c1cnn2c(NCc3ccccc3-c3ccc4[nH]ncc4c3)nc(N3CCC(N)CC3)nc12 [Compound 137]

Row | Structure (SMILES) | CDK1/CDK7: Selectivity of CDK7 inhibition over CDK1 inhibition
19 | CC(C)c1cnn2c(NCc3ccccc3-c3cc4ccccc4[nH]3)nc(N3CCC[C@@H](N)C3)nc12 [Compound 131] | B (B=less than 200 fold, but greater than 20 fold)

Same assay, conditions: CDK7 over CDK2

Row | Structure (SMILES) | CDK2/CDK7: Selectivity of CDK7 inhibition over CDK2 inhibition
20 | CC(C)c1cnn2c(NCc3ccccc3-c3cc4ccccc4[nH]3)nc(N3CCC[C@@H](N)C3)nc12 [Compound 131] | B (B=less than 200 fold, but greater than 20 fold)
21 | CC(C)c1cnn2c(NCc3ccccc3-n3cc4c(n3)CCC(=O)C4)nc(N3CCC(N)CC3)nc12 [Compound 132] | B (B=less than 200 fold, but greater than 20 fold)
22 | CC(C)c1cnn2c(NCc3ccccc3N3CC4CCCCC4C3)nc(N3CCC(N)CC3)nc12 (centres unmarked) [Compound 135] | B (B=less than 200 fold, but greater than 20 fold)
23 | CC(C)c1cnn2c(NCc3ccccc3-c3ccc4[nH]ncc4c3)nc(N3CCC(N)CC3)nc12 [Compound 137] | C (C=less than 20 fold)

Same assay, conditions: CDK7 over CDK5

Row | Structure (SMILES) | CDK5/CDK7: Selectivity of CDK7 inhibition over CDK5 inhibition
24 | CC(C)c1cnn2c(NCc3ccccc3-c3cc4ccccc4[nH]3)nc(N3CCC[C@@H](N)C3)nc12 [Compound 131] | B (B=less than 200 fold, but greater than 20 fold)
25 | CC(C)c1cnn2c(NCc3ccccc3-n3cc4c(n3)CCC(=O)C4)nc(N3CCC(N)CC3)nc12 [Compound 132] | B (B=less than 200 fold, but greater than 20 fold)
26 | CC(C)c1cnn2c(NCc3ccccc3N3CC4CCCCC4C3)nc(N3CCC(N)CC3)nc12 (centres unmarked) [Compound 135] | B (B=less than 200 fold, but greater than 20 fold)
27 | CC(C)c1cnn2c(NCc3ccccc3-c3ccc4[nH]ncc4c3)nc(N3CCC(N)CC3)nc12 [Compound 137] | C (C=less than 20 fold)

Same assay, conditions: read-out: CDK7 enzymatic activity (IC50 range)

Row | pIC50 | Structure (SMILES)
28 | > 7.00 | CC(C)c1cnn2c(NCc3ccccc3-c3cc4ccccc4[nH]3)nc(N3CCC[C@@H](N)C3)nc12 [Compound 131]
29 | > 7.00 | CC(C)c1cnn2c(NCc3ccccc3-n3cc4c(n3)CCC(=O)C4)nc(N3CCC(N)CC3)nc12 [Compound 132]
30 | > 7.00 | CC(C)c1cnn2c(NCc3ccccc3N3CC4CCCCC4C3)nc(N3CCC(N)CC3)nc12 (centres unmarked) [Compound 135]
31 | > 7.00 | CC(C)c1cnn2c(NCc3ccccc3-c3ccc4[nH]ncc4c3)nc(N3CCC(N)CC3)nc12 [Compound 137]

What follows are compounds tested against T4, CDK2/Cyclin A (Homo sapiens, UniProt P24941) (assay: Enzymatic assay for CDK2 (FRET based LANCE Ultra kinase assay)). Details: read-out: CDK2 enzymatic activity (IC50 range).
T4 construct: purchased Invitrogen PV6290
Format: biochemical
Outline: as §1

Row | pIC50 | Structure (SMILES)
32 | < 6.00 | CC(C)c1cnn2c(NCc3ccccc3-c3cc4ccccc4[nH]3)nc(N3CCC[C@@H](N)C3)nc12 [Compound 131]
33 | < 6.00 | CC(C)c1cnn2c(NCc3ccccc3-n3cc4c(n3)CCC(=O)C4)nc(N3CCC(N)CC3)nc12 [Compound 132]
34 | < 6.00 | CC(C)c1cnn2c(NCc3ccccc3N3CC4CCCCC4C3)nc(N3CCC(N)CC3)nc12 (centres unmarked) [Compound 135]
35 | > 7.00 | CC(C)c1cnn2c(NCc3ccccc3-c3ccc4[nH]ncc4c3)nc(N3CCC(N)CC3)nc12 [Compound 137]
